Test systems include EKVX NSCLC; SF-539 CNS; MDA-MB-231 breast; DU-145 prostate; HL-60(TB) leukemia; SK-MEL-5 melanoma; NCI-H460 lung; ACHN renal; U251 CNS; PC-3 prostate; HT29 colon; SW-620 colon; LOX IMVI melanoma.
What all share (assay): inhibition of tumour cell growth, NCI panel, 48 h

The structures appear in SMILES notation.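 Briefly, cells in 96-well plates were exposed to five compound concentrations for 48 h, and endpoints were estimated by linear interpolation. TGI: total growth inhibition.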

On to `Cc1ccc(-c2cc(N)n(-c3nc4c(c(=O)n(C)c(=O)n4C)n3C)n2)cc1`, for which the TGI with EKVX NSCLC, in the assay on SF-539 CNS, in the assay on MDA-MB-231 breast, in the assay with DU-145 prostate, with HL-60(TB) leukemia and with SK-MEL-5 melanoma was more than 100 µM in each case. Besides, the TGI in the assay on NCI-H460 lung, in the assay with ACHN renal, with U251 CNS, in the assay with PC-3 prostate and in the assay on HT29 colon was more than 100 µM throughout.
Regarding `O=C1OC2(OC2c2ccccc2)c2ccccc21` (configuration not stated), the TGI with SW-620 colon, with EKVX NSCLC, with SF-539 CNS, with HL-60(TB) leukemia, in the assay on SK-MEL-5 melanoma and in the assay on NCI-H460 lung was more than 100 µM throughout. Moreover, the TGI in the assay on LOX IMVI melanoma, in the assay with ACHN renal, with U251 CNS and in the assay with HT29 colon was more than 100 µM throughout.
With `O=C1NC(N/N=C/C(O)C(O)C(O)CO)=N/C1=C\c1ccco1` (configuration not stated), the TGI in the assay with SW-620 colon, in the assay with EKVX NSCLC, in the assay with SF-539 CNS, with MDA-MB-231 breast, in the assay on DU-145 prostate and with HL-60(TB) leukemia was more than 100 µM each time. The TGI in the assay on SK-MEL-5 melanoma, in the assay with NCI-H460 lung, with LOX IMVI melanoma, with ACHN renal, in the assay on U251 CNS and with HT29 colon was more than 100 µM in each case.
As to `Cc1cn(C(Cc2ccccc2)OCCO)c(=O)[nH]c1=O` (configuration not stated), the TGI in the assay with SW-620 colon, in the assay with EKVX NSCLC, with SF-539 CNS, with MDA-MB-231 breast, with DU-145 prostate and in the assay with SK-MEL-5 melanoma was more than 100 µM each time. The TGI in the assay with NCI-H460 lung, in the assay with LOX IMVI melanoma, with ACHN renal, in the assay on U251 CNS, in the assay with PC-3 prostate and with HT29 colon was more than 100 µM in each case.
`CN(NC(=O)c1cccs1)C1=NCCCN1`: the TGI in the assay on SW-620 colon, in the assay with EKVX NSCLC, in the assay on SF-539 CNS, with MDA-MB-231 breast, in the assay with HL-60(TB) leukemia and in the assay with SK-MEL-5 melanoma was more than 100 µM each time. Also, the TGI in the assay with NCI-H460 lung, in the assay on LOX IMVI melanoma, in the assay with ACHN renal, in the assay with U251 CNS, in the assay with PC-3 prostate and in the assay on HT29 colon was more than 100 µM each time.
In the case of `C[C@H](N)C(=O)Nc1ccc(-c2nc3ccccc3s2)cc1`, the TGI in the assay with SW-620 colon stood at 31 µM; in the assay with EKVX NSCLC it was 26.8 µM; in the assay with SF-539 CNS, 52.3 µM; in the assay with MDA-MB-231 breast, 36.5 µM; in the assay with DU-145 prostate, 38.5 µM; in the assay on SK-MEL-5 melanoma it was 43 µM. Besides, the TGI is 34.8 µM in the assay with NCI-H460 lung; more than 100 µM in the assay with LOX IMVI melanoma; 32.8 µM with ACHN renal; 32.2 µM in the assay with U251 CNS; 63.7 µM in the assay with PC-3 prostate; 38.2 µM with HT29 colon.
Regarding `COC(=O)[C@@H]1CCCN1CCN1CCC[C@H]1C(=O)OC`, the TGI in the assay on SW-620 colon, in the assay with SF-539 CNS, with MDA-MB-231 breast, in the assay with DU-145 prostate, in the assay on SK-MEL-5 melanoma and in the assay with NCI-H460 lung was more than 100 µM throughout. The TGI in the assay on ACHN renal, in the assay on U251 CNS, with PC-3 prostate and in the assay on HT29 colon was more than 100 µM throughout.
As to `O=C1CCCCC(=O)OC2(CCCCC2=O)CC1` (configuration not stated), the TGI in the assay with SW-620 colon, in the assay on SF-539 CNS, with MDA-MB-231 breast, with DU-145 prostate, in the assay with SK-MEL-5 melanoma and in the assay on NCI-H460 lung was more than 100 µM in each case. Besides, the TGI in the assay with ACHN renal, with U251 CNS, in the assay on PC-3 prostate and in the assay with HT29 colon was more than 100 µM each time.
As for `CC1CCOc2ccc(cc2)C=Nc2ccc(cc2)CCc2ccc(cc2)N=Cc2ccc(cc2)OCC1` (configuration not stated), the TGI in the assay with SW-620 colon, in the assay with EKVX NSCLC, with SF-539 CNS, in the assay on MDA-MB-231 breast, with DU-145 prostate and in the assay with SK-MEL-5 melanoma was more than 100 µM in each case. In addition, the TGI in the assay with NCI-H460 lung, with LOX IMVI melanoma, with ACHN renal, in the assay with U251 CNS, in the assay with PC-3 prostate and with HT29 colon was more than 100 µM each time.
Turning to `O=C(O)CC[N+]1=CCC(c2ccccc2)(c2ccccc2)O1`, the TGI in the assay with SW-620 colon, with EKVX NSCLC, in the assay with SF-539 CNS, in the assay with MDA-MB-231 breast, with DU-145 prostate and in the assay with SK-MEL-5 melanoma was more than 100 µM in each case. Further, the TGI in the assay on NCI-H460 lung, in the assay with ACHN renal, with U251 CNS, in the assay with PC-3 prostate and in the assay on HT29 colon was more than 100 µM each time.
On to `Cc1cn(C2CC(n3cc(Cn4cc(Br)c(=O)[nH]c4=O)nn3)C(CO)O2)c(=O)[nH]c1=O` (configuration not stated), for which the TGI in the assay on SW-620 colon, in the assay on EKVX NSCLC, in the assay on SF-539 CNS, with MDA-MB-231 breast, with DU-145 prostate and with SK-MEL-5 melanoma was more than 100 µM throughout. In addition, the TGI in the assay on LOX IMVI melanoma, with ACHN renal, in the assay on U251 CNS and in the assay on PC-3 prostate was more than 100 µM each time.
On to `CCOC(=O)c1ccc(N2C(=S)N(C(=O)c3ccccc3)C(=Nc3ccccc3)C2=Nc2ccccc2)cc1`, for which the TGI in the assay on SW-620 colon, in the assay on EKVX NSCLC, with SF-539 CNS, with DU-145 prostate, with SK-MEL-5 melanoma and in the assay with NCI-H460 lung was more than 100 µM throughout. Also, the TGI in the assay with ACHN renal, in the assay on U251 CNS, in the assay on PC-3 prostate and in the assay on HT29 colon was more than 100 µM each time.

The record behind these values is PubChem BioAssay (NCI).
